Results: patent publication US20250107533A1, “FUNGICIDAL COMPOSITIONS” (SYNGENTA CROP PROTECTION AG, priority 2021, published 2025)

Tested on: Phakopsora pachyrhizi
Experiment: Soybean leaf disk test against Asian soybean rust (Example 1)
Type: in vivo
Details: soybean leaf disks, assessed 12 days after inoculation; for inhibition at 0.74 ppm / inhibition at 2.22 ppm / inhibition at 0.25 ppm: Phakopsora pachyrhizi, foliar, 288 h, component (B) alone; for (A) inhibition: Aureobasidin A alone
Experimental: The compositions according to the invention are tested for their biological (fungicidal) activity using application rates wherein the component (A) is applied at a rate of from 25 g a.i./ha to 500 g a.i./ha in association with 10 g a.i./ha to 500 g a.i./ha of component (B).
The compositions according to the invention are tested for their biological (fungicidal) activity as dimethylsulfoxide (DMSO) solutions the protocols as set forth in the examples below. A standard description of the liquid culture tests is provided in Example 1.
Compounds to be tested were prepared as DMSO solutions (max. 10 mg/mL) which were diluted to the appropriate concentration with 0.025% TWEEN 20® surfactant just before spraying. Soybean leaf disks were placed on agar in multiwell plates (24-well format) and sprayed with test solutions. After 24 hours drying, the leaf disks were inoculated with a spore suspension of the fungus. The disease severity of a compound or mixture was assessed 12 days after inoculation and described as percent activity relative to the untreated check leaf disks.

| Compound | inhibition at 0.74 ppm | inhibition at 2.22 ppm | inhibition at 0.25 ppm | (A) inhibition (2.5 ppm) | (A) inhibition (7.4 ppm) |
| --- | --- | --- | --- | --- | --- |
| CCOC(=O)c1cnn(Cc2ccc(-c3noc(C(F)(F)F)n3)cc2)c1 [B.01, ethyl 1-[[4-[5-(trifluoromethyl)-1,2,4-oxadiazol-3-yl]phenyl]methyl]pyrazole-4-carboxylate] | 50% |  |  |  |  |
| CON(Cc1ccc(-c2noc(C(F)(F)F)n2)cc1)C(=O)C1CC1 [B.02, N-methoxy-N-[[4-[5-(trifluoromethyl)-1,2,4-oxadiazol-3-yl]phenyl]methyl]cyclopropanecarboxamide] | 10% | 35% |  |  |  |
| COC(C)C(=O)N(Cc1ccc(-c2noc(C(F)(F)F)n2)cc1)OC (stereo not shown) [B.03, N,2-dimethoxy-N-[[4-[5-(trifluoromethyl)-1,2,4-oxadiazol-3-yl]phenyl]methyl]propanamide] | 10% | 35% |  |  |  |
| CCN(Cc1ccc(-c2noc(C(F)(F)F)n2)cc1)C(=O)C(C)C [B.04, N-ethyl-2-methyl-N-[[4-[5-(trifluoromethyl)-1,2,4-oxadiazol-3-yl]phenyl]methyl]propanamide] | 0% | 35% | 0% |  |  |
| CNC(=O)N(Cc1ccc(-c2noc(C(F)(F)F)n2)cc1)OC [B.05, 1-methoxy-3-methyl-1-[[4-[5-(trifluoromethyl)-1,2,4-oxadiazol-3-yl]phenyl]methyl]urea] | 50% |  | 0% |  |  |
| CONC(=O)N(Cc1ccc(-c2noc(C(F)(F)F)n2)cc1)OC [B.06, 1,3-dimethoxy-1-[[4-[5-(trifluoromethyl)-1,2,4-oxadiazol-3-yl]phenyl]methyl]urea] | 0% |  | 0% |  |  |
| CCNC(=O)N(Cc1ccc(-c2noc(C(F)(F)F)n2)cc1)OC [B.07, 3-ethyl-1-methoxy-1-[[4-[5-(trifluoromethyl)-1,2,4-oxadiazol-3-yl]phenyl]methyl]urea] | 35% |  | 0% |  |  |
| CCC(=O)NCc1ccc(-c2noc(C(F)(F)F)n2)cc1 [B.08, N-[[4-[5-(trifluoromethyl)-1,2,4-oxadiazol-3-yl]phenyl]methyl]propanamide] | 20% | 60% | 0% |  |  |
| Aureobasidin A |  |  |  | 62% | 88% |
